In US20230064292A1, “METHODS OF TREATING PSMA-POSITIVE CANCER USING RADIONUCLIDE THERAPY” (priority 2020, published 2023):
“Also recorded” adds a separate entry of the source. Marks after values point to notes of the source that are not given here.

Columns and labels:
PSMA+ tumors = experiment: Tumor dosimetry and uptake by SPECT imaging in patients; type: in vivo, human
From the text: In addition to assessing radiation exposure to dose limiting organs, it is also feasible to use SPECT/CT or SPECT/MRI imaging and dosimetry to estimate CTT1403 dose to the tumor, which could indicate efficacy.
CTT1057 PSMA+ PET is used to screen patients for PSMA avid tumors prior to enrollment into the clinical trial. SPECT/CT images are collected serially on days 1, 3, 5 and 8 following CTT1403 dose administration to assess dosimetry, or exposure of normal organs and the tumor to the radionuclide, 177-lutetium. […] FIGS. 2-7 show the PET images collected prior to and after CTT1403 and serial SPECT/CT images collected from patients enrolled in the clinical trial. Further, Table 4 compares the doses in kidney and tumor reported by Violet et al (Violet, J., et al., “Dosimetry of (177)Lu-PSMA-617 in Metastatic Castration-Resistant Prostate Cancer: Correlations Between Pretherapeutic Imaging and Whole-Body Tumor Dosimetry with Treatment Outcomes” J Nucl Med, 2019. 60(4): p. 517-523) compared to findings to date in patients administered CTT1403.

[1] = Kidney dosimetry by SPECT/CT or SPECT/MRI in patients; type: in vivo, human
From the text: (§1) CTT1403 localization in various organs is accomplished by estimating dosimetry using SPECT/CT or SPECT/MRI imaging of the radioisotope component (using the gamma particle emission) of CTT1403, ^177Lu, up to 8 days after the first dose. […] Preclinical studies in rats with CTT1403 identified the kidneys as the dose limiting organ. Table 2, below, summarizes kidney dosimetry calculated from the first 15 patients enrolled in the study after receipt of escalating doses of CTT1403 and contrasts it with the predicted kidney exposure from rat studies. […] Preclinical studies in rats estimated expected kidney exposure of ˜5.2 Gy/GBq. […] CTT1403 may be sequestered in tumors and under exposing the kidney.

[2] = Preclinical rat studies of CTT1403 kidney exposure; type: in vivo
From the text: as §1

[3] = CTT1403 (7.5 GBq +/− 10%), preliminary, 2 tumors per patient in patients 14 and 15
[4] = patient 1, dose 0.73 GBq (19.6 mCi)
[5] = patient 4, dose 3.0 GBq (81.1 mCi)
[6] = patient 6, dose 2.98 GBq (80.5 mCi)
[7] = patient 14, dose 7.98 GBq (215.7 mCi)
[8] = patient 15, dose 7.77 GBq (210 mCi)
[9] = patient 1, injected activity 0.73 GBq (19.6 mCi)
[10] = patient 2, injected activity 1.50 GBq (40.5 mCi)
[11] = patient 3, injected activity 2.03 GBq (54.8 mCi)
[12] = patient 4, injected activity 3.00 GBq (81.1 mCi)
[13] = patient 5, injected activity 2.95 GBq (79.8 mCi)
[14] = patient 6, injected activity 2.98 GBq (80.5 mCi)
[15] = patient 7, injected activity 4.48 GBq (121.1 mCi)
[16] = patient 8, injected activity 4.52 GBq (122.2 mCi)
[17] = patient 9, injected activity 3.53 GBq (95.5 mCi)
[18] = patient 10, injected activity 4.48 GBq (121.2 mCi)
[19] = patient 11, injected activity 5.66 GBq (153.0 mCi)
[20] = patient 12, injected activity 5.99 GBq (162.0 mCi)
[21] = patient 13, injected activity 5.99 GBq (162.0 mCi)
[22] = patient 14, injected activity 7.98 GBq (215.7 mCi)
[23] = patient 15, injected activity 7.77 GBq (210.0 mCi)

SMILES: O=C(O)CC[C@H](NP(=O)(O)OCCC[C@H](NC(=O)CC[C@H](NC(=O)CCCCCNC(=O)CCC(NC(=O)CCOCCOCCOCCOCCNC(=O)CCC(=O)N1Cc2ccccc2-c2c(nnn2CCCNC(=O)CN2CCN3CCN4CCN(CC2)CC(=O)[O][177Lu]([O]C(=O)C3)[O]C(=O)C4)-c2ccccc21)C(=O)NC(CCCCNC(=O)CCCc1ccc(I)cc1)C(=O)O)C(=O)O)C(=O)O)C(=O)O (stereo partly drawn) [CTT1403]
- CTT1403 within tumor by SPECT (PSMA+ tumors; 4.5 GBq, through 7 days post-administration (FIG. 9, patient 12)): uptake of CTT1403 in tumors; also recorded: still clearly present
- uptake of CTT1403 in tumors by SPECT (PSMA+ tumors; 24 hours after administration of 7.5 GBq (FIG. 10, patient 17)): distinct uptake
- Tumor Dose to date, Dose Gy/GBq (PSMA+ tumors; [3]): 1.948* Gy/GBq
- Tumor Dose to date, Mean Dose (Gy) (PSMA+ tumors; [3]): 14.61* Gy
- tumor dose (PSMA+ tumors; administered by 3.0 GBq): ~1 Gy
- Tumor 1 (Gy) (PSMA+ tumors; [4]): 0.122 Gy
- Tumor 2 (Gy) (PSMA+ tumors; [4]): 0.1164 Gy
- Tumor 1 (Gy) (PSMA+ tumors; patient 2, dose 1.5 GBq (40.5 mCi)): 0.2461 Gy
- Tumor 2 (Gy) (PSMA+ tumors; patient 3, dose 2.03 GBq (54.8 mCi)): 0.2553 Gy
- Tumor 1 (Gy) (PSMA+ tumors; [5]): 1.282 Gy
- Tumor 2 (Gy) (PSMA+ tumors; [5]): 0.3729 Gy
- Tumor 3 (Gy) (PSMA+ tumors; [5]): 1.906 Gy
- Tumor 1 (Gy) (PSMA+ tumors; patient 5, dose 2.95 GBq (79.8 mCi)): 1.639 Gy
- Tumor 1 (Gy) (PSMA+ tumors; [6]): 1.104 Gy
- Tumor 2 (Gy) (PSMA+ tumors; [6]): 0.329 Gy
- Tumor 1 (Gy) (PSMA+ tumors; [7]): 13.6 Gy
- Tumor 2 (Gy) (PSMA+ tumors; [7]): 12.7 Gy
- Tumor 1 (Gy) (PSMA+ tumors; [8]): 22.4 Gy
- Tumor 2 (Gy) (PSMA+ tumors; [8]): 9.74 Gy
- tumor dose compared to 177Lu-PSMA-617 (PSMA+ tumors; patients at 7.5 GBq+/−10%, early reported): at least similar and possibly even greater
- tumor Gy/GBq compared to 177Lu-PSMA-617 in patients with PSA<50% (PSMA+ tumors; vs patients with less than a 50% reduction in circulating PSA): significantly outperform
- Kidney dose, Dose Gy/GBq ([1]; CTT1403 (7.5 GBq +/− 10%)): 0.689 Gy/GBq
- Kidney dose, Mean Dose (Gy) ([1]; CTT1403 (7.5 GBq +/− 10%)): 4.895 Gy
- Kidney dosimetry calculated from the first 15 patients ([1]; first 15 patients enrolled, escalating doses): 0.687 Gy/GBq
- factor by which clinical kidney dosimetry is lower than predicted by rat studies ([1]; first 15 patients vs rat prediction): ~10
- absorbed dose (Gy) - L. kidney [1, 9]: 0.441 Gy
- absorbed dose (Gy) - R. kidney [1, 9]: 0.430 Gy
- absorbed dose per GBq (Gy/GBq) - L. kidney [1, 9]: 0.608 Gy/GBq
- absorbed dose per GBq (Gy/GBq) - R. kidney [1, 9]: 0.593 Gy/GBq
- absorbed dose (Gy) - L. kidney [1, 10]: 0.915 Gy
- absorbed dose (Gy) - R. kidney [1, 10]: 0.876 Gy
- absorbed dose per GBq (Gy/GBq) - L. kidney [1, 10]: 0.610 Gy/GBq
- absorbed dose per GBq (Gy/GBq) - R. kidney [1, 10]: 0.584 Gy/GBq
- absorbed dose (Gy) - L. kidney [1, 11]: 1.54 Gy
- absorbed dose (Gy) - R. kidney [1, 11]: 2.07 Gy
- absorbed dose per GBq (Gy/GBq) - L. kidney [1, 11]: 0.757 Gy/GBq
- absorbed dose per GBq (Gy/GBq) - R. kidney [1, 11]: 1.020 Gy/GBq
- absorbed dose (Gy) - L. kidney [1, 12]: 1.97 Gy
- absorbed dose (Gy) - R. kidney [1, 12]: 1.70 Gy
- absorbed dose per GBq (Gy/GBq) - L. kidney [1, 12]: 0.655 Gy/GBq
- absorbed dose per GBq (Gy/GBq) - R. kidney [1, 12]: 0.565 Gy/GBq
- absorbed dose (Gy) - L. kidney [1, 13]: 4.41 Gy
- absorbed dose (Gy) - R. kidney [1, 13]: 4.84 Gy
- absorbed dose per GBq (Gy/GBq) - L. kidney [1, 13]: 1.494 Gy/GBq
- absorbed dose per GBq (Gy/GBq) - R. kidney [1, 13]: 1.638 Gy/GBq
- absorbed dose (Gy) - L. kidney [1, 14]: 2.75 Gy
- absorbed dose (Gy) - R. kidney [1, 14]: 2.65 Gy
- absorbed dose per GBq (Gy/GBq) - L. kidney [1, 14]: 0.922 Gy/GBq
- absorbed dose per GBq (Gy/GBq) - R. kidney [1, 14]: 0.889 Gy/GBq
- absorbed dose (Gy) - L. kidney [1, 15]: 2.54 Gy
- absorbed dose (Gy) - R. kidney [1, 15]: 2.83 Gy
- absorbed dose per GBq (Gy/GBq) - L. kidney [1, 15]: 0.567 Gy/GBq
- absorbed dose per GBq (Gy/GBq) - R. kidney [1, 15]: 0.632 Gy/GBq
- absorbed dose (Gy) - L. kidney [1, 16]: 3.45 Gy
- absorbed dose (Gy) - R. kidney [1, 16]: 3.54 Gy
- absorbed dose per GBq (Gy/GBq) - L. kidney [1, 16]: 0.764 Gy/GBq
- absorbed dose per GBq (Gy/GBq) - R. kidney [1, 16]: 0.784 Gy/GBq
- absorbed dose (Gy) - L. kidney [1, 17]: 1.71 Gy
- absorbed dose (Gy) - R. kidney [1, 17]: 1.85 Gy
- absorbed dose per GBq (Gy/GBq) - L. kidney [1, 17]: 0.484 Gy/GBq
- absorbed dose per GBq (Gy/GBq) - R. kidney [1, 17]: 0.522 Gy/GBq
- absorbed dose (Gy) - L. kidney [1, 18]: 2.26 Gy
- absorbed dose (Gy) - R. kidney [1, 18]: 2.75 Gy
- absorbed dose per GBq (Gy/GBq) - L. kidney [1, 18]: 0.505 Gy/GBq
- absorbed dose per GBq (Gy/GBq) - R. kidney [1, 18]: 0.612 Gy/GBq
- absorbed dose (Gy) - L. kidney [1, 19]: 3.32 Gy
- absorbed dose (Gy) - R. kidney [1, 19]: 3.08 Gy
- absorbed dose per GBq (Gy/GBq) - L. kidney [1, 19]: 0.587 Gy/GBq
- absorbed dose per GBq (Gy/GBq) - R. kidney [1, 19]: 0.543 Gy/GBq
- absorbed dose (Gy) - L. kidney [1, 20]: 3.15 Gy
- absorbed dose (Gy) - R. kidney [1, 20]: 2.81 Gy
- absorbed dose per GBq (Gy/GBq) - L. kidney [1, 20]: 0.525 Gy/GBq
- absorbed dose per GBq (Gy/GBq) - R. kidney [1, 20]: 0.469 Gy/GBq
- absorbed dose (Gy) - L. kidney [1, 21]: 2.65 Gy
- absorbed dose (Gy) - R. kidney [1, 21]: 2.50 Gy
- absorbed dose per GBq (Gy/GBq) - L. kidney [1, 21]: 0.443 Gy/GBq
- absorbed dose per GBq (Gy/GBq) - R. kidney [1, 21]: 0.417 Gy/GBq
- absorbed dose (Gy) - L. kidney [1, 22]: 5.53 Gy
- absorbed dose (Gy) - R. kidney [1, 22]: 5.41 Gy
- absorbed dose per GBq (Gy/GBq) - L. kidney [1, 22]: 0.693 Gy/GBq
- absorbed dose per GBq (Gy/GBq) - R. kidney [1, 22]: 0.678 Gy/GBq
- absorbed dose (Gy) - L. kidney [1, 23]: 4.89 Gy
- absorbed dose (Gy) - R. kidney [1, 23]: 3.75 Gy
- absorbed dose per GBq (Gy/GBq) - L. kidney [1, 23]: 0.629 Gy/GBq
- absorbed dose per GBq (Gy/GBq) - R. kidney [1, 23]: 0.482 Gy/GBq
- dose limiting organ ([2]; preclinical studies in rats): kidneys
- expected kidney exposure estimated from preclinical studies in rats ([2]; predicted human kidney exposure from rat studies): ~5.2 Gy/GBq
